Assay results as given in patent US11685739B2, “High penetration drugs and their compositions thereof for treatment of Parkinson diseases” (TECHFIELDS PHARMA CO., LTD, priority 2013, dated 2023).
Structures can show the parent of a compound that is named as a salt. Where two headings read alike, the source gives them in different places.

Conditions: human, pH 7.4

In the case of `CC(C(=O)O)c1cccc(Oc2ccccc2)c1` (stereo not shown) [Compound-34, 2-(3-phenoxyphenyl) propionic acid, reference compound], the “The cumulative amount of test compounds” value (1 h) is reported as 0.001 mg, the “The cumulative amount of test compounds” value (2 h) is reported as 0.001 mg and the “The cumulative amount of test compounds” value (4 h) is reported as 0.002 mg. For the same compound, the “The cumulative amount of test compounds” value (8 h) was 0.003 mg.

With `CNCC(=O)NCCc1ccc(OC(=O)c2ccccc2)c(OC(=O)c2ccccc2)c1.Cl` [Compound-1, 4-(2-(2-(methylamino)acetamido)ethyl)-1,2,-phenylene dibenzoate hydrochloride] the “The cumulative amount of test compounds” value (1 h) was 0.67 mg, the “The cumulative amount of test compounds” value (2 h) was 1.33 mg and the “The cumulative amount of test compounds” value (4 h) was 2.67 mg. The “The cumulative amount of test compounds” value (8 h) was 5.25 mg.

With `Cl.NC(Cc1ccccc1)C(=O)NCCc1ccc(OC(=O)c2ccccc2)c(OC(=O)c2ccccc2)c1` (stereo not shown) [Compound-4, 4-(2-(2-amino-3-phenylpropanamido)ethyl)-1,2,-phenylene dibenzoate hydrochloride] the “The cumulative amount of test compounds” value (1 h) was 0.59 mg, the “The cumulative amount of test compounds” value (2 h) was 1.21 mg and the “The cumulative amount of test compounds” value (4 h) was 2.45 mg. For the same compound, the “The cumulative amount of test compounds” value (8 h) was 4.93 mg.

In the case of `CCCCC(=O)Oc1ccc(C[C@H](N)C(=O)OC(C)C)cc1OC(=O)CCCC.Cl` [Compound-13, (S)-4-(2-amino-3-isopropoxy-3-oxopropyl)-1,2-phenylene dipentanoate hydrochloride], the “The cumulative amount of test compounds” value (1 h) is reported as 0.52 mg, the “The cumulative amount of test compounds” value (2 h) is reported as 1.05 mg and the “The cumulative amount of test compounds” value (4 h) is reported as 2.10 mg. The “The cumulative amount of test compounds” value (8 h) was 4.23 mg.

For `CC(=O)Oc1ccccc1C(=O)O` [Compound-32, acetylsalicylic acid, reference compound], the “The cumulative amount of test compounds” value (1 h) was 0.001 mg, the “The cumulative amount of test compounds” value (2 h) was 0.001 mg and the “The cumulative amount of test compounds” value (4 h) was 0.002 mg. For the same compound, the “The cumulative amount of test compounds” value (8 h) was 0.003 mg.

For `CC(C)OC(=O)[C@H](Cc1ccc(OC(=O)c2ccccc2)c(OC(=O)c2ccccc2)c1)NC(=O)C1CCNCC1` [Compound-18, (S)-4-(3-isopropoxy-3-oxo-2-(piperidine-4-carboxamido)propyl)-1,2-phenylene dibenzoate hydrochloride], the “The cumulative amount of test compounds” value (1 h) was 0.52 mg, the “The cumulative amount of test compounds” value (2 h) was 1.03 mg and the “The cumulative amount of test compounds” value (4 h) was 2.10 mg. The “The cumulative amount of test compounds” value (8 h) was 4.19 mg.

In the case of `CNCC(=O)Oc1ccc(C[C@H](NC(=O)OC(C)OC(=O)C(C)C)C(=O)OC(C)C)cc1OC(=O)c1ccccc1` (stereo partly drawn) [Compound-21(a), 5-((2S)-2-(((1-(isobutyryloxy)ethoxy)carbonyl)amino-3-isopropoxy-3-oxopropyl)-2-(2-(methylamino)acetoxy)phenyl benzoate hydrochloride], the “The cumulative amount of test compounds” value (1 h) is reported as 0.52 mg, the “The cumulative amount of test compounds” value (2 h) is reported as 1.08 mg and the “The cumulative amount of test compounds” value (4 h) is reported as 2.17 mg. The “The cumulative amount of test compounds” value (8 h) was 4.37 mg.

In the case of `CCN(CC)CCOC(=O)C(C)c1ccc(CC(C)C)cc1.Cl` (stereo not shown) [Compound-28, 2-(diethylamino)ethyl 2-(4-isobutylphenyl)propionate hydrochloride], the “The cumulative amount of test compounds” value (1 h) is reported as 1.15 mg, the “The cumulative amount of test compounds” value (2 h) is reported as 2.28 mg and the “The cumulative amount of test compounds” value (4 h) is reported as 4.57 mg. The “The cumulative amount of test compounds” value (8 h) was 9.19 mg.

In the case of `CC(C)OC(=O)[C@H](Cc1ccc(OC(=O)c2ccccc2)c(OC(=O)c2ccccc2)c1)NC(=O)OC1CCN2CCCCC12` (stereo partly drawn) [Compound-22, 4-((2S)-3-isopropoxy-2-((((octahydroindolizin-1-yl)oxy)carbonyl)amino)-3-oxopropyl)-1,2-phenylene dibenzoate acetate], the “The cumulative amount of test compounds” value (1 h) is reported as 0.45 mg, the “The cumulative amount of test compounds” value (2 h) is reported as 0.89 mg and the “The cumulative amount of test compounds” value (4 h) is reported as 1.78 mg. The “The cumulative amount of test compounds” value (8 h) was 3.61 mg.

For `CCOC(=O)NCCc1ccc(OC(=O)CNC)c(OC(=O)c2ccccc2)c1` [Compound-9b, 5-(2-((ethoxycarbonyl)amino)ethyl)-2-(2-methylamino)acetoxy)phenyl benzoate hydrochloride], the “The cumulative amount of test compounds” value (1 h) was 0.62 mg, the “The cumulative amount of test compounds” value (2 h) was 1.26 mg and the “The cumulative amount of test compounds” value (4 h) was 2.48 mg. The “The cumulative amount of test compounds” value (8 h) was 4.95 mg.

For `CC(OC(=O)NCCc1ccc2c(c1)OC(=O)CC(N)C(=O)O2)OC(=O)C(C)C` (stereo not shown) [Compound-8b, 1-(((2-(3-amino-2,5-dioxo-2,3,4,5-tetrahydrobenzo[b][1,4]dioxocin-8-yl)ethyl)carbamoyl)oxy)ethyl isobutyrate hydrofluoride], the “The cumulative amount of test compounds” value (1 h) was 0.62 mg, the “The cumulative amount of test compounds” value (2 h) was 1.24 mg and the “The cumulative amount of test compounds” value (4 h) was 2.47 mg. For the same compound, the “The cumulative amount of test compounds” value (8 h) was 4.85 mg.

For `CCC(CC)C(=O)Oc1ccc(CCNC(=O)OC2CCC3CCCCN3C2)cc1OC(=O)C(CC)CC` (stereo not shown) [Compound-7, 4-(2-((((-octahydro-1H-quinolizin-3-yl)oxy)carbonyl)amino)ethyl)-1,2,-phenylene bis(2-ethylbutanoate) acetate], the “The cumulative amount of test compounds” value (1 h) was 0.64 mg, the “The cumulative amount of test compounds” value (2 h) was 1.27 mg and the “The cumulative amount of test compounds” value (4 h) was 2.57 mg. The “The cumulative amount of test compounds” value (8 h) was 5.05 mg.

For `CC(OC(=O)NCCc1ccc2c(c1)OC(=O)C(N)CC(=O)O2)OC(=O)C(C)C` (stereo not shown) [Compound-8a, 1-(((2-(4-amino-2,5-dioxo-2,3,4,5-tetrahydrobenzo[b][1,4]dioxocin-8-yl)ethyl)carbamoyl)oxy)ethyl isobutyrate hydrofluoride], the “The cumulative amount of test compounds” value (1 h) was 0.63 mg, the “The cumulative amount of test compounds” value (2 h) was 1.22 mg and the “The cumulative amount of test compounds” value (4 h) was 2.43 mg. The “The cumulative amount of test compounds” value (8 h) was 4.83 mg.

For `CCN(CC)CCOC(=O)c1ccccc1Nc1c(Cl)ccc(C)c1Cl` [Compound-23, 2-(diethylamino)ethyl 2-[(2,6-dichloro-3-methylphenyl)amino]benzoate.acetate], the “The cumulative amount of test compounds” value (1 h) was 0.85 mg, the “The cumulative amount of test compounds” value (2 h) was 1.69 mg and the “The cumulative amount of test compounds” value (4 h) was 3.38 mg. For the same compound, the “The cumulative amount of test compounds” value (8 h) was 6.85 mg.

For `CCC(CC)OC(=O)[C@H](Cc1ccc(OC(=O)c2ccccc2)c(OC(=O)c2ccccc2)c1)NC(=O)C1CCCN1` (stereo partly drawn) [Compound-17, 4-((2S)-3-oxo-3-(pentan-3-yloxy)-2-(pyrrolidine-2-carboxamido)propyl)-1,2-phenylene dibenzoate hydrofluoride], the “The cumulative amount of test compounds” value (1 h) was 0.58 mg, the “The cumulative amount of test compounds” value (2 h) was 1.15 mg and the “The cumulative amount of test compounds” value (4 h) was 2.33 mg. For the same compound, the “The cumulative amount of test compounds” value (8 h) was 4.71 mg.

In the case of `Br.CNCC(=O)OC(C)OC(=O)NCCc1ccc(OC(=O)c2ccccc2)c(OC(=O)c2ccccc2)c1` (stereo not shown) [Compound-3, 4-(6-methyl-4,8-dioxo-5,7-dioxa-2,9-diazadecan-11-yl)-1,2,-phenylene dibenzoate hydrobromide], the “The cumulative amount of test compounds” value (1 h) is reported as 0.61 mg, the “The cumulative amount of test compounds” value (2 h) is reported as 1.23 mg and the “The cumulative amount of test compounds” value (4 h) is reported as 2.49 mg. The “The cumulative amount of test compounds” value (8 h) was 5.01 mg.

For `CCN(CC)CCOC(=O)CC1=C(C)/C(=C/c2ccc([S+](C)[O-])cc2)c2ccc(F)cc21` (stereo not shown) [Compound-24], the “The cumulative amount of test compounds” value (1 h) was 0.87 mg, the “The cumulative amount of test compounds” value (2 h) was 1.79 mg and the “The cumulative amount of test compounds” value (4 h) was 3.53 mg. For the same compound, the “The cumulative amount of test compounds” value (8 h) was 7.15 mg.

With `CCC(CC)C(=O)Oc1ccc(CCNC(=O)C2CCNCC2)cc1OC(=O)C(CC)CC.Cl` [Compound-6] the “The cumulative amount of test compounds” value (1 h) was 0.63 mg, the “The cumulative amount of test compounds” value (2 h) was 1.25 mg and the “The cumulative amount of test compounds” value (4 h) was 2.53 mg. For the same compound, the “The cumulative amount of test compounds” value (8 h) was 5.03 mg.

With `CC(C)OC(=O)[C@H](Cc1ccc2c(c1)OC(=O)C(N)CC(=O)O2)NC(=O)OC(C)OC(=O)C(C)C` (stereo partly drawn) [Compound-20(b), (2S)-isopropyl 3-(4-amino-2,5-dioxo-2,3,4,5-tetrahydrobenzo[b][1,4]dioxocin-8-yl)-2-(((1-(isobutyryloxy)ethoxy)carbonyl)amino)propanoate hydrobromide] the “The cumulative amount of test compounds” value (1 h) was 0.43 mg, the “The cumulative amount of test compounds” value (2 h) was 0.85 mg and the “The cumulative amount of test compounds” value (4 h) was 1.78 mg. The “The cumulative amount of test compounds” value (8 h) was 3.52 mg.

In the case of `CC(C)OC(=O)[C@H](Cc1ccc2c(c1)OC(=O)CC(N)C(=O)O2)NC(=O)OC(C)OC(=O)C(C)C` (stereo partly drawn) [Compound-20(a), (2S)-isopropyl 3-(3-amino-2,5-dioxo-2,3,4,5-tetrahydrobenzo[b][1,4]dioxocin-8-yl)-2-(((1-(isobutyryloxy)ethoxy)carbonyl)amino)propanoate hydrobromide], the “The cumulative amount of test compounds” value (1 h) is reported as 0.42 mg, the “The cumulative amount of test compounds” value (2 h) is reported as 0.88 mg and the “The cumulative amount of test compounds” value (4 h) is reported as 1.75 mg. The “The cumulative amount of test compounds” value (8 h) was 3.49 mg.

For `CCOC(=O)[C@@H](N)Cc1ccc(OC(C)=O)c(OC(C)=O)c1.Cl` [Compound-14, (S)-4-(2-amino-3-ethoxy-3-oxopropyl)-1,2-phenylene diacetate hydrochloride], the “The cumulative amount of test compounds” value (1 h) was 0.60 mg, the “The cumulative amount of test compounds” value (2 h) was 1.21 mg and the “The cumulative amount of test compounds” value (4 h) was 2.44 mg. The “The cumulative amount of test compounds” value (8 h) was 4.82 mg.

For `CC(C(=O)OCCN(C)C)c1cccc(Oc2ccccc2)c1.Cl` (stereo not shown) [Compound-25, 2-(dimethylamino)ethyl 2-(3-phenoxyphenyl) propionate.hydrochloride], the “The cumulative amount of test compounds” value (1 h) was 1.15 mg, the “The cumulative amount of test compounds” value (2 h) was 2.31 mg and the “The cumulative amount of test compounds” value (4 h) was 4.58 mg. The “The cumulative amount of test compounds” value (8 h) was 9.22 mg.

With `CC(C)OC(=O)[C@H](Cc1ccc(OC(=O)C(C)C)c(OC(=O)C(C)C)c1)NC(=O)C1CCN2CCCCC2C1.Cl` (stereo partly drawn) [Compound-19, 4-((2S)-3-isopropoxy-3-2-(octahydro-1H-quinolizine-2-carboxamido)-3-oxopropyl)-1,2-phenylene bis(2-methylpropanoate) hydrochloride] the “The cumulative amount of test compounds” value (1 h) was 0.48 mg, the “The cumulative amount of test compounds” value (2 h) was 0.98 mg and the “The cumulative amount of test compounds” value (4 h) was 2.02 mg. For the same compound, the “The cumulative amount of test compounds” value (8 h) was 4.09 mg.

With `CC(C(=O)SCCN(C)C)c1cccc(Oc2ccccc2)c1.Cl` (stereo not shown) [Compound-26] the “The cumulative amount of test compounds” value (1 h) was 1.17 mg, the “The cumulative amount of test compounds” value (2 h) was 2.33 mg and the “The cumulative amount of test compounds” value (4 h) was 4.65 mg. The “The cumulative amount of test compounds” value (8 h) was 9.31 mg.

For `CC(C)OC(=O)[C@H](Cc1ccc(OC(=O)c2ccccc2)c(OC(=O)c2ccccc2)c1)NC(=O)CN.Cl` [Compound-16], the “The cumulative amount of test compounds” value (1 h) was 0.56 mg, the “The cumulative amount of test compounds” value (2 h) was 1.13 mg and the “The cumulative amount of test compounds” value (4 h) was 2.23 mg. The “The cumulative amount of test compounds” value (8 h) was 4.49 mg.
